Values after ≈ are worked out from the molar mass of the structure shown. Like-named read-outs stand apart in the source and are kept apart here. Marks after values point to notes of the source that are not given here.
What was measured:
[1] = tested on: resistant strains of A. baumannii and one strain of Acinetobacter sp.; experiment: MIC without and with sub-inhibitory polymyxin B, whole panel / MIC ranges (Example 4; also strains not listed separately); type: cell-based; conditions: for MIC without PB/MIC + PB: A. baumannii NCTC 13301, ratio; for MIC: Acinetobacter baumannii
A. baumannii A390 = experiment: Preliminary MBC without and with sub-inhibitory polymyxin B (Example 4); type: cell-based, Acinetobacter baumannii; conditions: preliminary MBC; for MBC: Acinetobacter baumannii, A390, A. baumannii A390, without polymyxin B, read-out: MBC without PB
A. baumannii J2 = experiment: as above; type: cell-based, Acinetobacter baumannii; conditions: preliminary MBC; for MBC +[…] PB: A. baumannii J2, +[…] polymyxin B; for MBC: Acinetobacter baumannii, J2, A. baumannii J2, without polymyxin B, read-out: MBC without PB
A. baumannii A401 = experiment: MIC without and with sub-inhibitory polymyxin B (Example 4); type: cell-based, Acinetobacter baumannii; conditions: for MIC +0.06 μg/ml PB: +0.06 μg/ml polymyxin B; for MIC: Acinetobacter baumannii, A401, A baumannii A 401, without polymyxin B, read-out: MIC without PB
A. baumannii A472 [2] = experiment: Preliminary MBC without and with sub-inhibitory polymyxin B (Example 4); type: cell-based, Acinetobacter baumannii; conditions: for MBC +[…] PB: A. baumannii A472, +[…] polymyxin B; for MBC: Acinetobacter baumannii, A472, A. baumannii A472, without polymyxin B, read-out: MBC without PB
A. baumannii A329 = experiment: as above; type: cell-based, Acinetobacter baumannii; conditions: for MBC: Acinetobacter baumannii, A329, A. baumannii A329, without polymyxin B, read-out: MBC without PB
[3] = tested on: Acinetobacter sp. (H064200250); experiment: as above; type: cell-based; conditions: preliminary MBC; for MBC +[…] PB: +[…] polymyxin B; for MBC: Acinetobacter, without polymyxin B, read-out: MBC without PB
Outline: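 Read-out: the minimum concentration at which colonies were reduced by ca. 90% relative to positive control, usually seen as isolated colonies or a clear plate. Plates had been kept 18-20 hours at 37° C beforehand.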

[4] = tested on: Acinetobacter sp. (H064200250); experiment: MIC without and with sub-inhibitory polymyxin B (Example 4); type: cell-based; conditions: for MIC +[…] PB: +[…] polymyxin B; for MIC without PB/MIC + PB: ratio; for MIC: Acinetobacter, without polymyxin B, read-out: MIC without PB
A. baumannii A472 [5] = experiment: as above; type: cell-based, Acinetobacter baumannii; conditions: for MIC +[…] PB: +[…] polymyxin B; for MIC: Acinetobacter baumannii, A472, A. baumannii A472, without polymyxin B, read-out: MIC without PB
[6] = Acinetobacter spp. H064200250 (OXA51), 2nd experiment
[7] = Acinetobacter spp. H064200250, 1st experiment
[8] = Acinetobacter spp. H064200250 (OXA51), 2nd experiment, visual reading

## C[C@@H](O)[C@H]1C(=O)N2C(C(=O)O)=C(SCCN=CN)C[C@H]12 [Imipenem, reference compound]
[1]; 1st experiment
  MIC without PB/MIC + PB: 8
[1]; 2nd experiment
  MIC without PB/MIC + PB: 128
[1]; A. baumannii A14, without polymyxin B, 1st experiment, read-out: MIC without PB
  MIC: 1 µg/mL (≈ 3.34 µM)
[1]; A. baumannii A14, without polymyxin B, 2nd experiment, visual reading, read-out: MIC without PB
  MIC: 1 µg/mL (≈ 3.34 µM)
[1]; NCTC13301, A. baumannii NCTC 13301, without polymyxin B, 1st experiment, read-out: MIC without PB
  MIC: 128 µg/mL (≈ 428 µM)
[1]; NCTC13301, A. baumannii NCTC 13301, without polymyxin B, 2nd experiment, visual reading, read-out: MIC without PB
  MIC: 128 µg/mL (≈ 428 µM)
[1]; read-out: MIC range without PB 01-10-2008 n = 8, without polymyxin B, 1st experiment, 8 strains
  MIC: 1 to 128 µg/mL (≈ 3.34 to 428 µM)
[1]; with polymyxin B […] MIC, 1st experiment, 8 strains
  MIC range with PB ([…] MIC) 01-10-2008 n = 8: <0.125-16 μg/ml
A. baumannii A390; A. baumannii A390, +0.06 μg/ml polymyxin B, 2nd experiment
  MBC +0.06 μg/ml PB: 4 µg/mL
A. baumannii A390; 2nd experiment
  MBC: 16 µg/mL (≈ 53.4 µM)
A. baumannii A390; 1st experiment
  MBC: 16 µg/mL (≈ 53.4 µM)
A. baumannii J2; 2nd experiment
  MBC +[…] PB: ≤0.125 µg/mL
  MBC: 8 µg/mL (≈ 26.7 µM)
A. baumannii J2; 1st experiment
  MBC +[…] PB: ≤0.125 µg/mL
  MBC: 4 µg/mL (≈ 13.4 µM)
A. baumannii A401; A baumannii A 401, 1st experiment
  MIC +0.06 μg/ml PB: 8 µg/mL
A. baumannii A401; A baumannii A 401, 2nd experiment, visual reading
  MIC +0.06 μg/ml PB: 4 µg/mL
A. baumannii A401; A baumannii A 401, ratio MIC without PB to MIC + PB, PB 0.06 μg/ml, 2nd experiment
  MIC ratio without/with polymyxin B: 8 µg/mL
A. baumannii A401; A baumannii A 401, ratio, PB 0.06 μg/ml, 1st experiment
  MIC without PB/MIC + PB: 4
A. baumannii A401; 1st experiment
  MIC: 32 µg/mL (≈ 107 µM)
A. baumannii A401; 2nd experiment, visual reading
  MIC: 32 µg/mL (≈ 107 µM)
A. baumannii A472 [2]; 1st experiment
  MBC +[…] PB: 0.25 µg/mL (≈ 0.835 µM)
  MBC: 16 µg/mL (≈ 53.4 µM)
A. baumannii A472 [2]; 2nd experiment
  MBC +[…] PB: 0.25 µg/mL (≈ 0.835 µM)
  MBC: 8 µg/mL (≈ 26.7 µM)
A. baumannii A329; A. baumannii A329, +0.06 μg/ml polymyxin B, 2nd experiment
  MBC +0.06 μg/ml PB: 128 µg/mL
A. baumannii A329; 1st experiment
  MBC: 128 µg/mL (≈ 428 µM)
A. baumannii A329; 2nd experiment
  MBC: > 128 µg/mL
[3]; [6]
  MBC +[…] PB: 0.5 µg/mL (≈ 1.67 µM)
  MBC: 8 µg/mL (≈ 26.7 µM)
[3]; [7]
  MBC +[…] PB: 2 (0.5)* μg/ml
  MBC: 16 µg/mL (≈ 53.4 µM)
[4]; [8]
  MIC +[…] PB: 0.5 µg/mL (≈ 1.67 µM)
  MIC: 8 µg/mL (≈ 26.7 µM)
[4]; [6]
  MIC without PB/MIC + PB: 16
[4]; [7]
  MIC +[…] PB: 0.5 µg/mL (≈ 1.67 µM)
  MIC without PB/MIC + PB: 32
  MIC: 16 µg/mL (≈ 53.4 µM)
A. baumannii A472 [5]; A. baumannii A472, 1st experiment
  MIC +[…] PB: 0.25 µg/mL (≈ 0.835 µM)
A. baumannii A472 [5]; A. baumannii A472, 2nd experiment, visual reading
  MIC +[…] PB: 0.25 µg/mL (≈ 0.835 µM)
A. baumannii A472 [5]; A. baumannii A472, ratio MIC without PB to MIC + PB, PB […], 2nd experiment
  MIC ratio without/with polymyxin B: 32 µg/mL
A. baumannii A472 [5]; A. baumannii A472, ratio, PB […], 1st experiment
  MIC without PB/MIC + PB: 64
A. baumannii A472 [5]; 1st experiment
  MIC: 16 µg/mL (≈ 53.4 µM)
A. baumannii A472 [5]; 2nd experiment, visual reading
  MIC: 8 µg/mL (≈ 26.7 µM)
